6 compounds from patent publication US10716869B2, “Radiolabeled macrocyclic EGFR inhibitor” (Oncodesign SA, priority 2016, dated 2020) can be followed below.

For data set [1], the target named is T1, EGFR L858R (human, 672-1210) (Homo sapiens, UniProt P00533, L858R).
T1 construct: (human, 672-1210)
Nature of the data set: radiometric protein kinase assay (33PanQinase Activity Assay). As to conditions: Tests 1-3 are repeat determinations; read-out: Biochemical IC50 EGFR L858R. As to the method:
(§1) The compounds were tested in 100% DMSO, all recombinant protein kinases and substrates with respective concentration are described in table 1.

The target of data set [2] is T2, EGFR T790M/L858R (human, 672-1210) (Homo sapiens, UniProt P00533, L858R/T790M).
T2 construct: (human, 672-1210)
T2 sequence (P00533 672-1210 T790M/L858R): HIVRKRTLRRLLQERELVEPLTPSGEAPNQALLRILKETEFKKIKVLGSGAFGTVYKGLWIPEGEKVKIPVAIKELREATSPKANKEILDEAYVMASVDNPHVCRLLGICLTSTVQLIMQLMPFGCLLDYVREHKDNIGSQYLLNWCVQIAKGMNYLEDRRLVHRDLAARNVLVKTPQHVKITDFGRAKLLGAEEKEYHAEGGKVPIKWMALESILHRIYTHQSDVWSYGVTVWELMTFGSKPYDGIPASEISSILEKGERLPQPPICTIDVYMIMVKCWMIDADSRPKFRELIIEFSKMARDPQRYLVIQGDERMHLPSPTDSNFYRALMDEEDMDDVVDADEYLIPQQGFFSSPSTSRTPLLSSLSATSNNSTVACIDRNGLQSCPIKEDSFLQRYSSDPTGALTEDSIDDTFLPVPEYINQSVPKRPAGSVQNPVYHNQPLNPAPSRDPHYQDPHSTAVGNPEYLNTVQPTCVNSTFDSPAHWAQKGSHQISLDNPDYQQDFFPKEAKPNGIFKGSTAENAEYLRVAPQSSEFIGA
Described as above. As to conditions: Tests 1-3 are repeat determinations; read-out: Biochemical IC50 EGFR L858R/T790M. As to the method: as §1

For data set [3], the target named is T3, EGFR wt (human, 672-1210) (Homo sapiens, UniProt P00533).
T3 construct: (human, 672-1210)
T3 sequence (P00533 672-1210): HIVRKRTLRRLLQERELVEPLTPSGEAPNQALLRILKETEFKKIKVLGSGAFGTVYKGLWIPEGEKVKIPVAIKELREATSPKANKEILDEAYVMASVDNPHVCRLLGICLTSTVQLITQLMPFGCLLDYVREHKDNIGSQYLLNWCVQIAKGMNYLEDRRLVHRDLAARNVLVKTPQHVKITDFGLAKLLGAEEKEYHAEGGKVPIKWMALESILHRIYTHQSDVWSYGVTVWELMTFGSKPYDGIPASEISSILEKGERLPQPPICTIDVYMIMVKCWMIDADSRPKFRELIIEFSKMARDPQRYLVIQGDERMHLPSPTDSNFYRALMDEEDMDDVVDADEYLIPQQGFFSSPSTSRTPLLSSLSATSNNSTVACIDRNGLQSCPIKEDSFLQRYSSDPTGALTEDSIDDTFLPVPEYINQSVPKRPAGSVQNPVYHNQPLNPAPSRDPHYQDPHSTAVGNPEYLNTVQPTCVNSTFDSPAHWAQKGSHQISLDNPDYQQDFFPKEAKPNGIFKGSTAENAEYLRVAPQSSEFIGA
The data set is described as above. As to conditions: Tests 1-3 are repeat determinations; read-out: Biochemical IC50 EGFR WT (activated). As to the method: as §1

The next data set addresses T790M (EGFR mutant) (Homo sapiens, UniProt P00533, L858R/T790M). Described as above. Particulars: Test 1; read-out: Biochemical IC50 T790M. As to the method: A radiometric protein kinase assay (^33PanQinase® Activity Assay) was used for measuring the biochemical kinase activity of 3 protein kinases, EGFR wild-type and 2 EGFR mutants (L858R, L858R/T790M). The compounds were tested in 100% DMSO, all recombinant protein kinases and substrates with respective concentration are described in table 1.

A further data set has as its system NCI-H3255 (EGFR_L858R). Nature of the data set: MTS cell viability assay, 72 hours. Format: cell-based, Human. As to the method: (§2) The cell lines that were used to assay the cellular activity of the compounds are detailed in table 3 hereafter:
(§3) Tumor cells grew as monolayer at 37° C. in a humidified atmosphere (5% CO2) in complete culture medium adapted to each cell line. The cellular activity of the compounds was assessed by measuring the viability of cancer cell in MTS assay using a tetrazolium compound (MTS, 3-(4,5-dimethylthiazol-2-yl)-5-(3-carboxymethoxy phenyl)-2-(4-sulfophenyl)-2H-tetrazolium) and an electron coupling reagent named PMS (phenazine methosulfate). MTS is bioreduced by cells into a formazan product that is directly soluble in culture medium without processing. The cells were seeded 24 hours before treatment at the appropriate density in their culture medium to be near 90% of confluence at the end of experiment in vehicle treated conditions. After addition of compounds, the cells were incubated for 72 hours.
For orientation: Tetrazolium assays rely on reduction of a dye to a coloured formazan, in cell work by metabolically active cells.

A further data set concerns NCI-H441 (EGFR WT). Put plainly: MTS cell viability assay, 72 hours. The class given is cell-based, Human. Particulars: read-out: Cellular IC50 NCI-H441 (EGFR WT). As to the method:
as §2, §3

Data set [4] has as its system panel of 92 wild-type kinases. Put plainly: kinase selectivity, residual activity at 100 nM and 1 μM. As to conditions: for selectivity score S(50): 92 wild-type kinases.
Description: Corresponding kinases and substrates were always tested at the ATP Km concentration.
A short description of data set [5]: radiochemical stability in vehicle by HPLC. Format: physicochemical. As to conditions: conditions of formulation, storage at room temperature. As to the method:
By this method, the final radiolabeled compound can be obtained with a radiochemical purity greater than 98% in 100-110 min with a yield that can reach 25% (decay corrected). It has been noticed that an uncompleted evaporation of the solvents used for the purification of [^18F]Fluoroethyltosylate hampers the second step and conducts to lower yields. Specific activity of productions was in the range of […]. The radiolabeled compound is stable in the conditions of formulation as radiochemical purity still greater than 95% 20 h after production with a storage at room temperature.
(§4) After radiosynthesis, the stability of the radiotracer was evaluated by HPLC both in its vehicle and in rat plasma. Compound (I) was formulated in physiologic serum/ethanol with the respective proportion 87.5/12.5 (v/v). A mixture of compounds (I) (i.e. radiolabelled) and (Ia) (i.e. cold analogue) was stable for up to 20 hours at room temperature in its vehicle, only one peak being detected at the expected retention time. In rat plasma two peaks were detected: one at 3.15 minutes and one at 8.02 minutes (corresponding to a mixture of compounds (I) and (Ia)) after an incubation at +37° C. for 4 hours.

A short description of another data set: plasma stability by HPLC. Format: in vitro ADME, rat. Particulars: checked up to 4 h. As to the method: as §4
A short description of data set [6]: biodistribution by ex vivo γ-counting in Sprague Dawley rats. As to the method: To evaluate the biodistribution of the pure S (II) and R (III) enantiomers compared to compound (I), dynamic PET scan imaging and ex vivo gamma counting were performed on Sprague Dawley rats. Animals were injected with the radiotracer solution diluted in NaCl 0.9% to prepare a solution of activity 4-6 MBq (gamma-counting experiments) or 11-13 MBq (PET imaging experiments) in a volume of 300-400 or 600-800 μL, respectively. Radioactivity content in all biological samples was determined with scintillation γ-counter (Cobra 4180, Perkin-Elmer Inc.).
At the light of the biodistribution data of compound (I), the biodistribution of the R (III)- and S (II)-enantiomers was assessed by γ-counting in the organs in which the accumulation of compound (I) was prominent (that is: blood, heart, kidneys, liver, stomach, small intestine and colon). Two timepoints were selected: 5 and 30 minutes post-injection. […] The higher uptakes of R enantiomer (III) and S enantiomer (II) in these organs were expected to be observed at early timepoints after injection, giving the highest signals in the γ-counter and therefore making the comparison of biodistribution data more relevant. Besides, as PET images were acquired with compound (I), PET imaging was included in the evaluation of the biodistribution of R enantiomer and S enantiomer. This gave the opportunity to had one additional timepoint at 4 hours post-injection for collection of major organs and determination of radioactivity content by ex vivo γ-counting.

For data set [7], the system named is human lung tumors (wild type EGFR, L858R mutated or exon 19 deleted EGFR). Nature of the data set: autoradiography on human frozen tumor sections. As to conditions: ATP at 10 mM.
Description: Three types of human lung tumors were included: tumors harboring wild type EGFR and tumors carrying L858R mutated or exon 19 deleted EGFR genes.
The next data set concerns WT NCI-H441 tumors. Put plainly: in vivo specificity: competition for uptake of Compound (I). Further details: species or system rats. As to conditions: gefitinib 2 mg/rat or Compound (Ia) 1 mg/rat.

“And” between values parts separate entries of the source, which are not always exact repeats. Equal values may be shown once. Read-outs that look alike come from different tables or passages of the source.

T1 sequence (P00533 672-1210 L858R): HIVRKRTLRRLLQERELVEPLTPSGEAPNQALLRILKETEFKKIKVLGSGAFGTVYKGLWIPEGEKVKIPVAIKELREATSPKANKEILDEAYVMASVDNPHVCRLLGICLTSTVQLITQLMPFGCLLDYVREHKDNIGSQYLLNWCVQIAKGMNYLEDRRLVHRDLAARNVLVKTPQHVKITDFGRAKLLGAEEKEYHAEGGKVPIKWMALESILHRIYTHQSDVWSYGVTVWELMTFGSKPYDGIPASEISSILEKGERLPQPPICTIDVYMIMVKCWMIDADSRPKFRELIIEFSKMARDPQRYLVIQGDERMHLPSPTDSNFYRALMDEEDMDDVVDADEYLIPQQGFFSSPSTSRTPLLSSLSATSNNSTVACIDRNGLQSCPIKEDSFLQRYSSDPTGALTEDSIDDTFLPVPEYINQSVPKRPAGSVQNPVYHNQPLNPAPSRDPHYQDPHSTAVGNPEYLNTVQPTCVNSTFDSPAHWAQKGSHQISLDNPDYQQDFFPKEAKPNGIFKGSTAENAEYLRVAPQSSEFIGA
Chain of T790M (EGFR mutant) (P00533 672-1210 T790M/L858R): as the sequence (P00533 672-1210 T790M/L858R) above

Take `CC(C)[C@H]1NC(=O)Cc2ccc(Cl)cc2Nc2ncnc3cc(OCCF)c(cc23)OCCCNC1=O` [Compound (IIIa)]: the IC50 in [1] was determined as 2.7 nM; in data set [2] it was 77.7 nM; in data set [3], 3.1 nM; at T790M (EGFR mutant) it was 54.7 nM; in the data set with NCI-H3255 (EGFR_L858R) (Homo sapiens, NCI-H3255, 72 h, read-out: mean IC50 on NCI-H3255), 6.1 nM; in the data set with NCI-H441 (EGFR WT) (Homo sapiens, NCI-H441, 72 h), 34700 nM. Moreover, the IC50 with NCI-H441 (EGFR WT) is over 25000 nM. Also, the figures for the “selectivity score S(50)” value in data set [4] (at 100 nM) and in [4] (at 1 μM) were 0.6% and 2.8%, respectively.
Turning to `CC(C)[C@@H]1NC(=O)Cc2ccc(Cl)cc2Nc2ncnc3cc(OCCF)c(cc23)OCCCNC1=O` [Compound (IIa)], the IC50 in [1] is < 10 nM and 6.3 nM; in data set [2], 924 nM; in [3] it was < 10 nM and 5.9 nM; at T790M (EGFR mutant) it was 1010 nM; in the data set with NCI-H3255 (EGFR_L858R) (Homo sapiens, NCI-H3255, 72 h, read-out: Cellular IC50 NCI-H3255 (EGFR_L858R)) it was 30 nM; with NCI-H3255 (EGFR_L858R) (read-out: Cellular IC50 NCI-H3255 (EGFR_L858R)), 49 nM. In addition, in the data set with NCI-H441 (EGFR WT) (Homo sapiens, NCI-H441, 72 h), the IC50 is over 25000 nM. Also, in [4] (at 100 nM), the “wild-type kinases inhibited for more than 50%” value is “EGFR and RIPK2 were the only wild-type kinases inhibited for more than 50%”. Besides, the “selectivity score S(50)” value in data set [4] (at 100 nM) was 2.2% and 2.5%; in data set [4] (at 1 μM) it was 11.9% and 13%. In addition, the “number of other kinases with inhibition of >50%” value in [4] (at 1 μM) is recorded as 9.
Turning to `CC(C)[C@@H]1NC(=O)Cc2ccc(Cl)cc2Nc2ncnc3cc(OCC[18F])c(cc23)OCCCNC1=O` [Compound (II)], the “radiochemical purity 20 h after production” value in data set [5] was “greater than 95%”. Besides, in “plasma stability by HPLC”, the “Plasmatic stability” value is listed as “without significant degradation”. The uptake in liver in data set [6] (5 minutes post injection) turned out to be 0.97±0.92 % ID/g; in data set [6] (30 minutes post injection), 0.15±0.03 % ID/g. Moreover, the entries for the “uptake in small intestine” value in data set [6] (5 minutes post injection) and in data set [6] (thirty minutes post-injection) were 0.08±0.09 % ID/g and 0.08±0.07 % ID/g, respectively. The uptake in blood in data set [6] (5 minutes post-injection) turned out to be 0.11±0.01 % ID/g. Also, the uptake in heart was 1.35±0.35 % ID/g in data set [6] (5 minutes post-injection) and 0.19±0.08 % ID/g in data set [6] (30 minutes post-injection). For the same compound, the uptake in kidneys in [6] (5 minutes post-injection) stood at 6.89±0.52 % ID/g; in data set [6] (30 minutes timepoint), 1.04±0.17 % ID/g. Further, the uptake in stomach in data set [6] (5 minutes post-injection) stood at 0.72±0.38 % ID/g; in data set [6] (30 minutes timepoint), 0.20±0.05 % ID/g; in data set [6] (four hours post-injection), 2.39±2.31 % ID/g.
In the case of `CC(C)[C@H]1NC(=O)Cc2ccc(Cl)cc2Nc2ncnc3cc(OCC[18F])c(cc23)OCCCNC1=O` [(III)], the uptake in liver came to 0.02±0.09 % ID/g in data set [6] (5 minutes post injection) and 0.71±0.07 % ID/g in data set [6] (30 minutes post injection). Moreover, the “uptake in small intestine” value came out at 0.35±0.19 % ID/g in data set [6] (5 minutes post injection) and 0.02±0.004 % ID/g in data set [6] (thirty minutes post-injection). For the same compound, in [6] (5 minutes post-injection), the uptake in blood is 0.20±0.002 % ID/g. For the same compound, the uptake in heart in data set [6] (5 minutes post-injection) came out at 0.99±0.02 % ID/g; in data set [6] (30 minutes post-injection), 0.10±0.02 % ID/g. In addition, the figures for the uptake in kidneys in data set [6] (5 minutes post-injection) and in data set [6] (30 minutes timepoint) were 4.15±0.79 % ID/g and 0.25±0.08 % ID/g, respectively. For the same compound, the uptake in stomach is 1.86±0.73 % ID/g in [6] (5 minutes post-injection), 0.26±0.07 % ID/g in data set [6] (30 minutes timepoint) and 2.58±2.52 % ID/g in data set [6] (four hours post-injection).
Regarding `Nc1ncnc2c1ncn2[C@@H]1O[C@H](COP(=O)(O)OP(=O)(O)OP(=O)(O)O)[C@@H](O)[C@H]1O` [ATP, reference compound], the “competition with the binding of Compound (I) on frozen tumor sections” value in data set [7] is “totally abolished the binding of Compound (I)”.
For the compound `COc1cc2ncnc(Nc3ccc(F)c(Cl)c3)c2cc1OCCCN1CCOCC1` [Gefitinib, gefitinib, reference compound], the “change of uptake of Compound (I) after competition” value with WT NCI-H441 tumors is listed as “+16%”.
